In US20140363526A1, “SYNERGISTIC FORMULATION OF PLANT EXTRACTS FOR HEPATIC AND ADRENAL DISORDERS” (Bioved Pharmaceuticals, Inc., priority 2013, published 2014):

Test system: dexamethasone induced triglyceride synthesis in human subcutaneous pre-adipocytes
Test: Inhibition of long term dexamethasone induced triglyceride synthesis
Type: cell-based
Settings: single extracts 1 μg/ml, combined formulation 10 μg/ml, vs DMSO control
Description: The study was conducted at a reputed US Contract Research Lab which has access to pooled human subcutaneous pre-adipocytes (female, average age 54.2, average BMI 27.9) from twelve different donors. These were cultured in 96-well plates in DMEM/Ham's F-12 (1:1, v/v) with 10% fetal bovine serum and differentiated according to a standard protocol. The next day, the pre-adipocyte medium was removed and replaced with differentiation medium; namely insulin, dexamethasone and IBMX (3-isobutyl-1-methylxanthine, a competitive nonselective phosphodiesterase inhibitor and a nonselective adenosine receptor antagonist. The media containing the formulations were prepared by different methods (individually and combined). After seven days, 90 μl of differentiation medium was removed and replaced with 120 μl of adipocyte medium (containing dexamethasone and insulin in DMEM). After seven more days, cells were assayed for cytotoxicity and cellular triglyceride content.
Cellular triglycerides were measured by a two-step procedure. […] After 15 minutes, the optical density of each well of the new plate was measured at 540 nm. The absorbance values of the unknown samples were converted to glycerol concentrations by correlation to the glycerol concentration standards using the generated linear regression equation.

With TNF-a the “inhibition of TG synthesis” value was “significantly reduced TG synthesis”.
